In brackets after ≈: the same amount, converted by molar mass.
Columns and labels:
[1] = test system: P. aeruginosa PAO1 and efflux deficient mutants, MDR/XDR isolates; test: microbe, parasite or virus in culture; type: cell-based, Pseudomonas aeruginosa
Description: Antimicrobial Susceptibility Assay. The in vitro antimicrobial activity of all compounds/antibiotics against a panel of bacteria was evaluated by microbroth dilution method in accordance with the Clinical and Laboratory Standards Institute (CLSI) guidelines (using ATCC strains as quality control strains) (54). […] The broth with or without bacterial cells was used as positive or negative control, respectively.

P. aeruginosa PAO1 = test: Outer membrane permeabilization assay (NPN uptake); type: cell-based, Pseudomonas aeruginosa
Description: Outer Membrane Permeabilization Assay. […] Briefly, an overnight grown P. aeruginosa PAO1 culture was subcultured (1 in 100) in fresh LB broth and grown to a mid-logarithmic phase (approximately 2 h, OD600=0.5-0.6). The cells were harvested by centrifuging for 10 min at 1000 g and room temperature, washed twice in PBS, and resuspended in half volume of PBS. This suspension was used in standard microtiter plate assay. […] PMBN, a known outer membrane permeabilizer, served as a positive control while cells +NPN (without test compounds) served as a negative control. Four independent replicates were conducted, and the data were corrected for any background fluorescence.

[2] = test system: A. baumannii ATCC 17978 and resistant mutants; test: microbe, parasite or virus in culture; type: cell-based, Acinetobacter baumannii; conditions: Acinetobacter baumannii
Description: Antimicrobial Susceptibility Assay. The in vitro antimicrobial activity of all compounds/antibiotics against a panel of bacteria was evaluated by microbroth dilution method in accordance with the Clinical and Laboratory Standards Institute (CLSI) guidelines (using ATCC strains as quality control strains) (54). Overnight grown bacterial cultures were diluted in saline to achieve a 0.5 McFarland turbidity, followed by 1:50 dilution in Mueller-Hinton broth (MHB) for inoculation to a final concentration of approximately 5×10^5 CFU/mL. […] The lowest concentration that prevented the visible growth of bacteria was defined as the MIC for each antimicrobial agent. The broth with or without bacterial cells was used as positive or negative control, respectively.
Development of Resistance Study. […] Tobramycin and colistin were included as controls. At 24-hour intervals, the cultures were assessed for growth. […] This serial passaging was repeated for 8 days.

K. pneumoniae 116381 = test: Time-kill assay; type: cell-based, Klebsiella pneumoniae; conditions: LB media, novobiocin 32 μg/ml, compound 1 7.1 μM, 24 h
Description: (§1) Time-kill Assay. […] At specific time intervals (0, 1, 3, 6, 9, and 24 h), 100 μl was taken from each sample, serially diluted in sterile PBS, plated on LB agar plates, and incubated at 37° C. in a humid 5% CO2-enriched atmosphere. Bacterial colonies were counted after 20 h of incubation.

A. baumannii ATCC 17978 = test: Time-kill assay; type: cell-based, Acinetobacter baumannii; conditions: novobiocin 32 μg/ml, after 24 h
Description: as §1

E. coli ATCC 25922 = test: Time-kill assay; type: cell-based, Escherichia coli; conditions: novobiocin 32 μg/ml, compound 1 7.1 μM
Description: as §1

SMILES	MIC of Compound 1 ([1]; PAO1 (wild-type)) [µg/mL]	MIC of Compound 1 ([1]; PAO200 (efflux-deficient)) [µg/mL]	MIC of Compound 1 ([1]; PAO750 (efflux-deficient)) [µg/mL]	outer membrane permeabilization (NPN fluorescence) (P. aeruginosa PAO1)	NPN fluorescence relative to PMBN (8 μg/ml) (P. aeruginosa PAO1; compound 1 at 16 μg/ml)	MIC ([2]; ATCC17978, 18 h, Mutant C (seven serial passages, sub-MICs novobiocin + 7.1 μM compound 1)) [µg/mL]	MIC ([2]; ATCC17978, Mutant A (seven serial passages, sub-MICs novobiocin)) [µg/mL]	MIC ([2]; ATCC17978, Mutant B (seven serial passages, sub-MICs colistin)) [µg/mL]	time-kill outcome (K. pneumoniae 116381)	time-kill outcome (A. baumannii ATCC 17978)	incubation time after which bactericidal (E. coli ATCC 25922) [h]
NC[C@H]1O[C@H](O[C@H]2[C@H](OCCCCc3cn(CCCCO[C@@H]4[C@@H](O[C@H]5O[C@H](CO)[C@@H](O)[C@H](N)[C@H]5O)[C@H](N)C[C@H](N)[C@H]4O[C@H]4O[C@H](CN)[C@@H](O)C[C@H]4N)nn3)[C@@H](O[C@H]3O[C@H](CO)[C@@H](O)[C@H](N)[C@H]3O)[C@H](N)C[C@@H]2N)[C@H](N)C[C@@H]1O.O=C(O)C(F)(F)F.O=C(O)C(F)(F)F.O=C(O)C(F)(F)F.O=C(O)C(F)(F)F.O=C(O)C(F)(F)F.O=C(O)C(F)(F)F.O=C(O)C(F)(F)F.O=C(O)C(F)(F)F.O=C(O)C(F)(F)F.O=C(O)C(F)(F)F [Compound 1, Tobramycin Homodimer 1]	>128	>128	>128	dose-dependent	increased fluorescence						
CO[C@@H]1[C@@H](OC(N)=O)[C@@H](O)[C@H](Oc2ccc3c(O)c(NC(=O)c4ccc(O)c(CC=C(C)C)c4)c(=O)oc3c2C)OC1(C)C [Novobiocin]						128	2050 (≈ 3.34 mM)	< 0.031	bacterial growth identical to their respective controls	bacteriostatic	24
